Measured values published in Sander's compilation of Henry's law constants (doi:10.1021/j100876a049).

Test: Henry solubility constant Hcp at 298.15 K (mol/(m3 Pa))
Details: reference: McAuliffe (1966)

Structure (SMILES)	Henry solubility constant Hcp
CC(C)(C)C [dimethylpropane]	4.7e-06
C#CCC [1-butyne]	0.00054
CC(C)C [2-methylpropane]	8.5e-06
C=CC [propene]	4.8e-05
CCCC [butane]	1.1e-05
C=CCC [1-butene]	4e-05
C=C [ethene]	4.7e-05
C=C(C)C [2-methylpropene]	4.8e-05
C=CC(C)C [3-methyl-1-butene]	1.9e-05
C#CC [propyne]	0.00092
